# Legend:
# Assay in all cases: relative viability (nuclei count vs DMSO), 5 days (fraction); higher = more cells survive
# NCI-H1666 = tested on: NCI-H1666
# Outline: (§1)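 Lung cancer cell lines in 1536-well plates were dosed by pin tool the day after seeding, either with one drug alone or with a fixed anchor-drug dose plus five library-drug doses (not always all listed) in √10 steps. After 5 days, cells were fixed and their nuclei stained in one step (final 0.05% Triton X-100, 1% formaldehyde, 1 ug/ml Hoechst), then counted on 4× images. Relative viability is the nuclei count in treated wells divided by that in vehicle wells. Values are medians of duplicate plates.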
# NCI-H1755 = tested on: NCI-H1755
# Outline: as §1
# NCI-H1792 = tested on: NCI-H1792
# Outline: as §1
# NCI-H1993 = tested on: NCI-H1993
# Outline: as §1
# NCI-H2085 = tested on: NCI-H2085
# Outline: as §1
# NCI-H2087 = tested on: NCI-H2087
# Outline: as §1
# NCI-H2170 = tested on: NCI-H2170
# Outline: as §1
# NCI-H460 = tested on: NCI-H460
# Outline: as §1
# NCI-H520 = tested on: NCI-H520
# Outline: as §1
# PC-14 = tested on: PC-14
# Outline: as §1
# SK-MES-1 = tested on: SK-MES-1
# Outline: as §1
structure (smiles),measurement,setting,value
Cc1cn(-c2cc(NC(=O)c3ccc(C)c(Nc4nccc(-c5cccnc5)n4)c3)cc(C(F)(F)F)c2)cn1 [Nilotinib] + CC(=O)Nc1cccc(-n2c(=O)n(C3CC3)c(=O)c3c(Nc4ccc(I)cc4F)n(C)c(=O)c(C)c32)c1 [Trametinib] (partner 0.02 µM),relative viability,NCI-H1666; first compound 0.01 µM,0.638
same,relative viability,NCI-H1666; first compound 0.03162 µM,0.766
same,relative viability,NCI-H1666; first compound 0.1 µM,0.746
same,relative viability,NCI-H1755; first compound 0.001 µM,0.745
same,relative viability,NCI-H1755; first compound 0.003162 µM,0.806
same,relative viability,NCI-H1755; first compound 0.01 µM,0.699
same,relative viability,NCI-H1755; first compound 0.03162 µM,0.64
same,relative viability,NCI-H1755; first compound 0.1 µM,0.556
same,relative viability,NCI-H1792; first compound 0.001 µM,0.365
same,relative viability,NCI-H1792; first compound 0.003162 µM,0.491
same,relative viability,NCI-H1792; first compound 0.01 µM,0.446
same,relative viability,NCI-H1792; first compound 0.03162 µM,0.077
same,relative viability,NCI-H1792; first compound 0.1 µM,0.162
same,relative viability,NCI-H1993; first compound 0.001 µM,0.47
same,relative viability,NCI-H1993; first compound 0.003162 µM,0.522
same,relative viability,NCI-H1993; first compound 0.01 µM,0.477
same,relative viability,NCI-H1993; first compound 0.03162 µM,0.507
same,relative viability,NCI-H1993; first compound 0.1 µM,0.494
same,relative viability,NCI-H2085; first compound 0.001 µM,0.483
same,relative viability,NCI-H2085; first compound 0.003162 µM,0.584
same,relative viability,NCI-H2085; first compound 0.01 µM,0.469
same,relative viability,NCI-H2085; first compound 0.03162 µM,0.456
same,relative viability,NCI-H2085; first compound 0.1 µM,0.54
same,relative viability,NCI-H2087; first compound 0.001 µM,0.189
same,relative viability,NCI-H2087; first compound 0.003162 µM,0.322
same,relative viability,NCI-H2087; first compound 0.01 µM,0.153
same,relative viability,NCI-H2087; first compound 0.03162 µM,0.143
same,relative viability,NCI-H2087; first compound 0.1 µM,0.126
same,relative viability,NCI-H2170; first compound 0.001 µM,0.816
same,relative viability,NCI-H2170; first compound 0.003162 µM,1.23
same,relative viability,NCI-H2170; first compound 0.01 µM,1.1
same,relative viability,NCI-H2170; first compound 0.03162 µM,0.842
same,relative viability,NCI-H2170; first compound 0.1 µM,0.868
same,relative viability,NCI-H460; first compound 0.003162 µM,0.127
same,relative viability,NCI-H460; first compound 0.01 µM,0.0752
same,relative viability,NCI-H460; first compound 0.03162 µM,0.108
same,relative viability,NCI-H460; first compound 0.1 µM,0.0424
same,relative viability,NCI-H520; first compound 0.001 µM,0.612
same,relative viability,NCI-H520; first compound 0.003162 µM,0.747
same,relative viability,NCI-H520; first compound 0.01 µM,0.738
same,relative viability,NCI-H520; first compound 0.03162 µM,0.392
same,relative viability,NCI-H520; first compound 0.1 µM,0.39
same,relative viability,PC-14; first compound 0.001 µM,0.671
same,relative viability,PC-14; first compound 0.003162 µM,1.14
same,relative viability,PC-14; first compound 0.01 µM,0.708
same,relative viability,PC-14; first compound 0.03162 µM,0.448
same,relative viability,PC-14; first compound 0.1 µM,0.526
same,relative viability,SK-MES-1; first compound 0.001 µM,0.581
same,relative viability,SK-MES-1; first compound 0.003162 µM,0.482
same,relative viability,SK-MES-1; first compound 0.01 µM,0.492
same,relative viability,SK-MES-1; first compound 0.03162 µM,0.437
same,relative viability,SK-MES-1; first compound 0.1 µM,0.339

# Source: the supplement of paper PMC10307832
